Source: patent US20020001565A1, “Radioprotective agents” (priority 2000, published 2002)

System: CD2F 1 male mice
Test: 30-day survival of mice after a lethal dose of cobalt-60 radiation
Format: in vivo
Protocol: Control groups were administered saline and polyethylene glycol 400 (the vehicle for the genistein) prior to irradiation. Genistein (Sigma Chemical Co., St. Louis, Mo.) was administered 400 mg/kg either as a single dose or multiple dosages of 100 mg/kg each at various times ranging from 1 hour to 4 days before radiation, after irradiation, or both before and after radiation.
In subsequent studies, using the procedures and mice of Example 1, a single subcutaneous dose of 100 or 400 mg/kg genistein was administered 24 hr before 9.5 Gy radiation.

Structure (SMILES): O=c1c(-c2ccc(O)cc2)coc2cc(O)cc(O)c12 [genistein, 5,7-dihydroxy-3-(4-hydroxyphenyl)-4H-1 benzopyran-4-one]
- 30-day survival (100 mg/kg orally daily for 4 days before and 4 days after irradiation, 9.5 Gy): 50%
- 30-day survival (genistein before and after irradiation, oral, 9.5 Gy cobalt-60, dose not given): 69%
- 30-day survival (genistein only after irradiation, oral, 9.5 Gy cobalt-60, dose not given): 0%
- 30-day survival (genistein only before radiation, oral, 9.5 Gy cobalt-60 at 0.6 Gy/min, dose not given): Forty-four
- 30-day survival (multiple oral administration 100 mg/kg, 4 days before irradiation, 9.5 Gy): 0%
- 30-day survival (multiple oral administration 100 mg/kg, after irradiation, 9.5 Gy): 0%
- radioprotection (single dose 400 mg/kg orally 1 hr before 9.5 Gy radiation): did not confer any measurable radioprotection
- radioprotection (single dose 400 mg/kg orally 24 hr before 9.5 Gy radiation): did not confer any measurable radioprotection
- 30-day survival rate (single subcutaneous dose 100 mg/kg 24 hr before 9.5 Gy radiation): 69%
- 30-day survival rate (single subcutaneous dose 400 mg/kg 24 hr before 9.5 Gy radiation): 81%
